Measurements taken from ChEMBL document CHEMBL3112417, “Design, synthesis, radiolabeling and in vivo evaluation of potential positron emission tomography (PET) radioligands for brain imaging of the 5-HT₇ receptor” (Bioorg Med Chem, 2014).

Legend:
[1] = molecular target: T1, Adrenergic receptor alpha-1 (Rattus norvegicus, UniProt P15823+P23944+P43140); test: Displacement of [3H]-prazosin from rat brain alpha1 adrenergic receptor after 50 mins
T1 sequence (P15823 whole entry): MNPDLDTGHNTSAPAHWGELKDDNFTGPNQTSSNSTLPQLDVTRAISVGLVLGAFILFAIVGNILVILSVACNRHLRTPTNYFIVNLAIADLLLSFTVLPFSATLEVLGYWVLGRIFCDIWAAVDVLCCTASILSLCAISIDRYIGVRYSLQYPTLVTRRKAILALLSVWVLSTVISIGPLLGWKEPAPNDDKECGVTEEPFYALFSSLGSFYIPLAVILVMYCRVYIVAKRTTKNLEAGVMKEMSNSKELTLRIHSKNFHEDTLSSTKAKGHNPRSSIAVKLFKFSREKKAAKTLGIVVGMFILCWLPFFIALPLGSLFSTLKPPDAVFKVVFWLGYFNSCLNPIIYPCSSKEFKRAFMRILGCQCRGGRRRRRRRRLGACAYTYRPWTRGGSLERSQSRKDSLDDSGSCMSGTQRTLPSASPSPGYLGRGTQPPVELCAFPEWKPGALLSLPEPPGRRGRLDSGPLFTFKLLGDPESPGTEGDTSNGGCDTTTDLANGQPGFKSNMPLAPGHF
T1 sequence (P23944 whole entry): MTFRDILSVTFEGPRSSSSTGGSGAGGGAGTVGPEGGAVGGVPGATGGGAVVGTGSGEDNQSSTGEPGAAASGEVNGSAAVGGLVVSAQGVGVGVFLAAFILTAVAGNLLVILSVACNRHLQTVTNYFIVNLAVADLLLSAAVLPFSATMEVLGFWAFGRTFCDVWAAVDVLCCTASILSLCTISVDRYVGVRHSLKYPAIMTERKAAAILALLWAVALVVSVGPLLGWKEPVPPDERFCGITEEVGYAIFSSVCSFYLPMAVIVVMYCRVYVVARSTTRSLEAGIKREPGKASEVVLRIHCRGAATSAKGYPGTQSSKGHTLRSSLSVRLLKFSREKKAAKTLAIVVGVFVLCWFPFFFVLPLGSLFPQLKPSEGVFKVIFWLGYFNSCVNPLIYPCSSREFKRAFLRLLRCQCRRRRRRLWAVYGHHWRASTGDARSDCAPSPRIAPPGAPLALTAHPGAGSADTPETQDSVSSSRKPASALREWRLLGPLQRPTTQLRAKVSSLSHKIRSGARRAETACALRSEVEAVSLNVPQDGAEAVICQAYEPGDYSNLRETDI
T1 sequence (P43140 whole entry): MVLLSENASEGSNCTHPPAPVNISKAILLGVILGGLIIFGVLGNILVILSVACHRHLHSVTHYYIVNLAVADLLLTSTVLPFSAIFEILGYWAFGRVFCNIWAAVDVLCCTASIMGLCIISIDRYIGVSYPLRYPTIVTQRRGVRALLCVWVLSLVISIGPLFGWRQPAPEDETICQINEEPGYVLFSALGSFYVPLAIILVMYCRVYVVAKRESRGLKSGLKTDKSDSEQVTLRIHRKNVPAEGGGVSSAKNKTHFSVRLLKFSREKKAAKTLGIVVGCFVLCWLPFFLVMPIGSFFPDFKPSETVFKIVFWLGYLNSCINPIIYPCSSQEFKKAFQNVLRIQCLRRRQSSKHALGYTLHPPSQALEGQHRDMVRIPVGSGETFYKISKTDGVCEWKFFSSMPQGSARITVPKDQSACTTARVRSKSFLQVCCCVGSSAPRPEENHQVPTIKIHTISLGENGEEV

[2] = molecular target: T2, 5-hydroxytryptamine receptor 1A (Homo sapiens, UniProt P08908); test: Displacement of [3H]8-OH-DPAT from human 5HT1A receptor transfected in HEK293-EBNA cells after 120 mins; assay type: cell-based
T2 sequence (P08908 whole entry): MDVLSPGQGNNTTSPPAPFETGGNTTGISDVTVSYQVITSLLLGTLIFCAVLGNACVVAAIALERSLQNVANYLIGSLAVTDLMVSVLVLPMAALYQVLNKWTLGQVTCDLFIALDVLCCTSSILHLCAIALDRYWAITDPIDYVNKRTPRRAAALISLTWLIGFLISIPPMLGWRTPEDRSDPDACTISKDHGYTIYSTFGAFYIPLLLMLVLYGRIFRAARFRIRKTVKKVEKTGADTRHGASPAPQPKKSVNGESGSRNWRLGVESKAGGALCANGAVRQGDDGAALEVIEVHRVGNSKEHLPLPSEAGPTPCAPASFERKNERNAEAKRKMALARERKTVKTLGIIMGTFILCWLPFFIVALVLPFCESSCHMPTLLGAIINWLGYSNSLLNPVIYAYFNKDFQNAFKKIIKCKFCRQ

[3] = molecular target: T3, 5-hydroxytryptamine receptor 7 (Homo sapiens, UniProt P34969); test: Displacement of [3H]5-CT from human 5HT7 receptor transfected in HEK293 cells after 60 mins; assay type: cell-based
T3 sequence (P34969 whole entry): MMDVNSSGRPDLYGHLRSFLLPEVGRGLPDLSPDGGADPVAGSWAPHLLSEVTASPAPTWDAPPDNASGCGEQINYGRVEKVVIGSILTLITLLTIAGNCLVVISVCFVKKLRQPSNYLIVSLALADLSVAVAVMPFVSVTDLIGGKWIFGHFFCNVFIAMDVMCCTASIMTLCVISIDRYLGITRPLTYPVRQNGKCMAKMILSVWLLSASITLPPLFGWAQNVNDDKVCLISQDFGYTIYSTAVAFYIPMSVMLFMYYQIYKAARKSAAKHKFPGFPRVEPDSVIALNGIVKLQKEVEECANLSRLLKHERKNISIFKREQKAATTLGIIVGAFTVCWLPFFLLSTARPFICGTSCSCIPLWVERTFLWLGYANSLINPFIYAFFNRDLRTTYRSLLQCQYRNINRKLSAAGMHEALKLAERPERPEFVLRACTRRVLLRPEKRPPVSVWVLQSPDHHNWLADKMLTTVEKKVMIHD

[4] = Drug metabolism in Danish Landrace pig plasma assessed as compound remaining at 432 +/- 102 MBq, iv after 5 mins; assay type: ADME, organism-based, Sus scrofa; conditions: read-out: Stability
[5] = Drug uptake in Danish Landrace pig brain at 52 to 300 MBq, iv after 90 mins by PET imaging analysis; assay type: ADME, organism-based, Sus scrofa; conditions: in vivo
[6] = Drug uptake in Danish Landrace pig brain at 52 to 300 MBq, iv administered 90 mins prior to cyclosporine A challenge measured after 30 mins by PET imaging analysis; assay type: ADME, organism-based, Sus scrofa; conditions: in vivo, 0.5 h
[7] = Drug metabolism in rat liver S9 fraction assessed as compound remaining at 10 uM after 30 mins by RP-HPLC analysis; assay type: ADME, subcellular; conditions: read-out: Stability
[8] = Efflux ratio of permeability from basolateral to apical side over apical to basolateral side in human Caco2 cells at 10 to 100 uM after 30 to 120 mins; assay type: ADME, cell-based; conditions: Caco-2
[9] = molecular target: T3, 5-hydroxytryptamine receptor 7; test: Displacement of [3H]5-CT from human 5HT7 receptor transfected in HEK293 cells after 60 mins by Scatchard plot analysis; assay type: cell-based
[10] = test system: Sus scrofa; test: Ratio of drug uptake in Danish Landrace pig brain at 432 +/- 102 MBq, iv in presence of cyclosporine A to drug uptake in Danish Landrace pig brain at 432 +/- 102 MBq, iv after 90 mins; conditions: in vivo
[11] = Drug uptake in Danish Landrace pig brain at 432 +/- 102 MBq, iv administered 90 mins prior to cyclosporine A challenge measured after 30 mins by PET imaging analysis; assay type: ADME, organism-based, Sus scrofa; conditions: in vivo, 0.5 h
[12] = Drug uptake in Danish Landrace pig brain at 432 +/- 102 MBq, iv after 90 mins by PET imaging analysis; assay type: ADME, organism-based, Sus scrofa; conditions: in vivo

Row | Compound | Ki [1] | Ki [2] | Ki [3] | other results
1 | COc1ccc(-c2ccccc2N2CCN(CCCCCC(=O)NCc3ccc(F)nc3)CC2)cc1 | 13.3 nM | – | – | –
2 | COc1ccc(CNC(=O)CCOCCN2CCN(c3cccc(-c4ccccc4OC)c3)CC2)cc1 | > 1000 nM | 186 nM | > 1000 nM | –
3 | [11CH3]Oc1ccc(-c2ccccc2N2CCN(CCOCCC(=O)NCc3ccncc3)CC2)cc1 | – | – | – | remaining at 5 min [4]: 30%; Drug uptake [5]: Active; Drug uptake [6]: Active
4 | O=C(CCCCCN1CCN(c2ncccc2-c2ccncc2)CC1)NCc1ccc(F)nc1 | 255 nM | 203 nM | 71 nM | –
5 | O=C(CCOCCN1CCN(c2ccccc2-c2ccc(F)cc2)CC1)NCc1ccc(F)nc1 | 51.3 nM | 433 nM | 15.9 nM | –
6 | COc1ccc(CNC(=O)CCCCCN2CCN(c3cccnc3-c3ccncc3)CC2)cc1 | > 1000 nM | 537 nM | 64.2 nM | –
7 | COc1ccc(-c2ccccc2N2CCN(CCOCCC(=O)NCc3ccncc3)CC2)cc1 | – | – | – | remaining at 0.5 h, 10 µM [7]: 82%; efflux ratio at up to 100 µM [8]: 4.48
8 | COc1ccc(CNC(=O)CCCCCN2CCN(c3ncccc3-c3ccncc3)CC2)cc1 | 816 nM | 614 nM | 26.1 nM | –
9 | COc1ccccc1-c1cccc(N2CCN(CCOCCC(=O)NCc3ccc(F)nc3)CC2)c1 | > 1000 nM | 387 nM | > 1000 nM | –
10 | COc1ccc(-c2ccccc2N2CCN(CCCCCC(=O)NCc3ccncc3)CC2)cc1 | – | – | – | remaining at 0.5 h, 10 µM [7]: 76%; efflux ratio at up to 100 µM [8]: 3.33; Bmax [9]: 2.7 pmol/mg; Kd [9]: 1.17 nM
11 | COc1ccc(-c2ccccc2N2CCN(CCOCCC(=O)NCc3ccc(F)nc3)CC2)cc1 | 386 nM | 568 nM | 34.5 nM | –
12 | [11CH3]Oc1ccc(-c2ccccc2N2CCN(CCCCCC(=O)NCc3ccncc3)CC2)cc1 | – | – | – | Ratio [10]: 3; Drug uptake [11]: Active; Drug uptake [12]: Active
13 | COc1ccc(CNC(=O)CCOCCN2CCN(c3ccccc3-c3ccccc3C)CC2)cc1 | 162 nM | 743 nM | 33.4 nM | –
14 | COc1ccc(CNC(=O)CCOCCN2CCN(c3ccccc3-c3ccc(F)cc3)CC2)cc1 | 156 nM | 272 nM | 45.2 nM | –
15 | Cc1ccccc1-c1ccccc1N1CCN(CCOCCC(=O)NCc2ccc(F)nc2)CC1 | 365 nM | 875 nM | 12.8 nM | –
16 | O=C(CCCCCN1CCN(c2cccnc2-c2ccncc2)CC1)NCc1ccc(F)nc1 | 414 nM | 961 nM | 66.7 nM | –
